Measurements as given in US20240025862A1, “SUBSTITUTED N-PHENYLURACILS AND SALTS THEREOF, AND USE THEREOF AS HERBICIDAL ACTIVE SUBSTANCES” (Bayer Aktiengesellschaft, priority 2020, published 2024).

Assays:
Format in all cases: in vivo
[1] = tested on: Pharbitis purpurea (PHBPU); test: Post-emergence herbicidal action, greenhouse pot test; details: Ipomoea purpurea, 504 h, read-out: Post-emergence action against PHBPU in %; for pest or weed control at 1.25 g/ha: dosage 1.25 g/ha; for pest or weed control at 5 g/ha: dosage 5 g/ha; for pest or weed control at 20 g/ha: dosage 20 g/ha
In short: (§1)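 Activity was scored by eye about 3 weeks after treatment against untreated plants, where 100% means dead plants and 0% means no difference. Plants at the one-leaf stage received a foliar spray of WP or EC formulations in water plus 0.5% additive (600 l/ha, up to 20 g/ha). Plants were grown in sandy loam pots in a greenhouse for 2–3 weeks before spraying.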

Viola tricolor (VIOTR) = test: as above; details: Viola tricolor, 504 h, read-out: Post-emergence action against VIOTR
In short: as §1

Veronica persica (VERPE) = test: as above; details: Veronica persica, 504 h, read-out: Post-emergence action against VERPE
In short: as §1

[2] = tested on: Abutilon theophrasti (ABUTH); test: as above; details: Abutilon theophrasti, 504 h, rated visually after about 3 weeks vs untreated controls, 100% = plants have died; for pest or weed control at 1.25 g/ha: read-out: Post-emergence action at 1.25 g/ha against ABUTH in %; for pest or weed control at 5 g/ha: read-out: Post-emergence action at 5 g/ha against ABUTH in %; for pest or weed control at 20 g/ha: read-out: Post-emergence action at 20 g/ha against ABUTH in %
In short: as §1

[3] = tested on: Polygonum convolvulus (POLCO); test: as above; details: Fallopia convolvulus, 504 h, read-out: Post-emergence action against POLCO in %
In short: as §1

Lolium rigidum (LOLRI) = test: as above; details: Lolium rigidum, 504 h, dosage 20 g/ha, read-out: Post-emergence action against LOLRI in %
In short: as §1

[4] = tested on: Amaranthus retroflexus (AMARE); test: as above; details: Amaranthus retroflexus, 504 h, rated visually after about 3 weeks vs untreated controls, 100% = plants have died; for pest or weed control at 1.25 g/ha: read-out: Post-emergence action at 1.25 g/ha against AMARE in %; for pest or weed control at 5 g/ha: read-out: Post-emergence action at 5 g/ha against AMARE in %; for pest or weed control at 20 g/ha: read-out: Post-emergence action at 20 g/ha against AMARE in %
In short: as §1

Avena fatua (AVEFA) = test: as above; details: Avena fatua, 504 h, 20 g/ha, rated visually after about 3 weeks vs untreated controls, 100% = plants have died, read-out: Post-emergence action at 20 g/ha against AVEFA in %
In short: as §1

Oryza sativa (ORYSA) = test: Post-emergence crop plant compatibility, greenhouse pot test (also comparative test C); details: 1.25 g/ha, vs untreated controls
In short: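 Visual damage versus untreated plants (0% = like control, 100% = plants died) was scored about 3 weeks after a post-emergence spray in greenhouse pots. Treatment: one-leaf stage, WP or EC in water at 600 l/ha with 0.5% additive; a/b/c mark different dosages on the same crop.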

[5] = tested on: Triticum aestivum (TRZAS); test: Post-emergence crop plant compatibility, greenhouse pot test; details: 1.25 g/ha, vs untreated controls
In short: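 Values are visual % damage versus untreated controls (100% = plants died) about 3 weeks after treatment. Plants in sandy loam were sprayed at the one-leaf stage, 2–3 weeks after sowing, with aqueous WP/EC preparations plus 0.5% additive at 600 l/ha; a/b/c mark different dose levels.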

[6] = tested on: Matricaria inodora (MATIN); test: Post-emergence herbicidal action, greenhouse pot test (also comparative test C); details: Tripleurospermum inodorum, 504 h, read-out: Post-emergence action against MATIN in %; for pest or weed control at 1.25 g/ha: dosage 1.25 g/ha; for pest or weed control at 20 g/ha: dosage 20 g/ha
In short: (§2)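 Green parts of one-leaf-stage plants are sprayed at 600 l/ha with formulated compound plus 0.5% additive, then kept under optimum greenhouse conditions for about 3 weeks. Damage is scored visually, where 100% means dead plants and 0% means no difference from controls.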

[7] = tested on: Alopecurus myosuroides (ALOMY); test: as above; details: Alopecurus myosuroides, 504 h, rated visually after about 3 weeks vs untreated controls, 100% = plants have died; for pest or weed control at 5 g/ha: read-out: Post-emergence action at 5 g/ha against ALOMY in %; for pest or weed control at 20 g/ha: read-out: Post-emergence action at 20 g/ha against ALOMY in %
In short: as §2

Setaria viridis (SETVI) = test: as above; details: Setaria viridis, 504 h; for pest or weed control at 20 g/ha: read-out: Post-emergence action against SETVI; for pest or weed control at 1.25 g/ha: dosage 1.25 g/ha; for pest or weed control at 1.25 g/ha / pest or weed control at 5 g/ha: read-out: Post-emergence action against SETVI in %; for pest or weed control at 5 g/ha: dosage 5 g/ha
In short: as §2

[8] = tested on: Echinochloa crus-galli (ECHCG); test: as above; details: for pest or weed control at 5 g/ha / pest or weed control at 20 g/ha: Echinochloa crus-galli, 504 h, read-out: Post-emergence action against ECHCG in %; for pest or weed control at 5 g/ha: dosage 5 g/ha; for pest or weed control at 20 g/ha: dosage 20 g/ha
In short: as §2

Post-emergence action against ORYSA (crop plant compatibility) (Oryza sativa (ORYSA)) [%]	Post-emergence action against TRZAS (crop plant compatibility) [5] [%]	Compound	pest or weed control at 1.25 g/ha [1] [%]	pest or weed control at 5 g/ha [1] [%]	pest or weed control at 20 g/ha [1] [%]	pest or weed control at 1.25 g/ha (Viola tricolor (VIOTR)) [%]	pest or weed control at 5 g/ha (Viola tricolor (VIOTR)) [%]	pest or weed control at 20 g/ha (Viola tricolor (VIOTR)) [%]	pest or weed control at 5 g/ha (Veronica persica (VERPE)) [%]	pest or weed control at 20 g/ha (Veronica persica (VERPE)) [%]	pest or weed control at 1.25 g/ha [2] [%]	pest or weed control at 5 g/ha [2] [%]	pest or weed control at 20 g/ha [2] [%]	pest or weed control at 20 g/ha (Lolium rigidum (LOLRI)) [%]	pest or weed control at 1.25 g/ha [4] [%]	pest or weed control at 5 g/ha [4] [%]	pest or weed control at 20 g/ha [4] [%]	pest or weed control at 20 g/ha (Avena fatua (AVEFA)) [%]	pest or weed control at 1.25 g/ha [6] [%]	pest or weed control at 20 g/ha [6] [%]	other results
20	0	Cn1c(C(F)(F)F)cc(=O)n(-c2cc(Oc3ccccc3OCC(=O)OCC3CCCO3)c(Cl)cc2F)c1=O (centres unmarked) [I.7-71, Tetrahydrofuran-2-ylmethyl (2-{2-chloro-4-fluoro-5-[3-methyl-2,6-dioxo-4-(trifluoromethyl)-3,6-dihydropyrimidin-1(2H)-yl]phenoxy}phenoxy)acetate]	100	100	100	100	100	100	100	100	100	100	100	80	100	100	100	90	80	100	pest or weed control at 1.25 g/ha (Veronica persica (VERPE); 1.25 g/ha): 100%; pest or weed control at 5 g/ha ([3]; dosage 5 g/ha): 100%; pest or weed control at 20 g/ha ([3]; dosage 20 g/ha): 100%; pest or weed control at 5 g/ha [7]: 80%; pest or weed control at 20 g/ha [7]: 80%; pest or weed control at 20 g/ha (Setaria viridis (SETVI)): 100%; pest or weed control at 1.25 g/ha (Setaria viridis (SETVI)): 100%; pest or weed control at 5 g/ha (Setaria viridis (SETVI)): 100%; Post-emergence action at 1.25 g/ha against ECHCG in % ([8]; 1.25 g/ha, rated visually after about 3 weeks vs untreated controls, 100% = plants have died): 100%; pest or weed control at 5 g/ha [8]: 100%; pest or weed control at 20 g/ha [8]: 100%
0	20	Cn1c(C(F)(F)F)cc(=O)n(-c2cc(Oc3ccccc3OCC(=O)OCC[N+](=O)[O-])c(Cl)cc2F)c1=O [I.7-183, 2-Nitroethyl (2-{2-chloro-4-fluoro-5-[3-methyl-2,6-dioxo-4-(trifluoromethyl)-3,6-dihydropyrimidin-1(2H)-yl]phenoxy}phenoxy)acetate]	80	100	100	100	100	100	100	100	100	100	100	80	100	100	100	90	80	100	pest or weed control at 5 g/ha ([6]; dosage 5 g/ha): 100%; pest or weed control at 5 g/ha [7]: 80%; pest or weed control at 20 g/ha [7]: 100%; pest or weed control at 20 g/ha (Setaria viridis (SETVI)): 100%; pest or weed control at 1.25 g/ha (Setaria viridis (SETVI)): 100%; pest or weed control at 5 g/ha (Setaria viridis (SETVI)): 100%; pest or weed control at 5 g/ha [8]: 100%; pest or weed control at 20 g/ha [8]: 100%
